Source: patent publication US4863969A, “Treatment of premalignant lesions and certain malignant tumors” (priority 1985, dated 1989)
Where two headings read alike, the source gives them in different places.

Tests used:
[1] = tested on: chemically-induced breast tumors; test: Prevention of chemically-induced (dimethyl-benz(a)anthracene) breast tumors in female rats; assay type: in vivo, female Sprague-Dawley rats; conditions: in feed, 11 weeks
Description: (A) The activity of compound Ia with respect to the prevention of chemically-induced breast tumors was determined according to the following procedure. Female Sprague-Dawley rats were used in this experiment. The experimental animals were kept under temperature-controlled and light-controlled conditions and had free access to drinking water and feed. At the age of 50 days 15 mg of dimethyl-benz(a)anthracene dissolved in arachis oil were administered to each rat by means of a probang. The treatment with compound Ia began 1 day after the administration of the carcinogen. The body weight of the experimental animals was recorded and the tumors were palpated weekly and measured with a vernier caliper. The volumes were calculated according to the formula D/2·d^2 in which D represents the larger diameter of the tumor ellipsoid and d represents the smaller diameter of the tumor ellipsoid. After 11 weeks the experiment was terminated and evaluated. In this experiment there were used in addition to 30 control animals, which received exclusively normal feed, the following three groups of experimental animals:
1. 33 rats to which were administered daily 30 mg/kg of compound Ia mixed with the feed.
2. 36 rats to which were administered daily 90 mg/kg of compound Ia mixed with the feed.
3. 33 rats to which were administered daily 270 mg/kg of compound Ia mixed with the feed.
The feed mixture was adjusted weekly according to the body weight and the total food intake.

[2] = tested on: transplantable chondrosarcoma of the rat; test: Activity on the transplantable chondrosarcoma of the rat; assay type: in vivo, albino rats; conditions: 400 mg/kg p.o.
Description: (B) The activity of compond Ia on tumors was, furthermore, determined on the transplantable chondrosarcoma of the rat according to the following method. The solid tumor of a donor animal was finely minced and suspended in phosphate-buffered sodium chloride solution. 0.5 ml of the 30% tumor suspension was implanted subcutaneously into albino rats. […] Each treatment group embraced 7 rats. Suspensions of compound Ia in arachis oil were administered orally five times per week for 4 weeks. The tumor areas were determined on days 1, 15 and 29. The largest (D) and the smallest (d) diameter of the tumors were determined with the aid of a vernier caliper and the product D·d was determined. The change in this area size was calculated in percentages.

[3] = tested on: squamous metaplasia of the vaginal epithelium; test: Antimetaplastic activity in ovarectomized rats (hormone-induced squamous metaplasia, vaginal smear); assay type: in vivo, female Holtzmann rats
Description: (C) The antimetaplastic activity of compound Ia was determined in rats according to the following method. Female Holtzmann rats weighing approximately 100 g were ovarectomized under Thiogenal narcosis after an adaptation period of 8 days and were used in the experiment after a further 14 days. In each case two animals were placed in a cage and had free access to feed which contained approximately 2000 IU of analytically determined vitamin A. Prior to the oral administration of the test compound the animals were treated subcutaneously each day for 6 successive days with the hormone mixture of 1 μg of estradiol benzoate and 250 μg of testosterone propionate dissolved in 0.1 ml of sesame oil. The parenteral hormone administration led to the formation of a clear granular stage in the vaginal smear, i.e. a squamous metaplasia. 2 days after the oral administration of the test substance the result of the reaction was again read off on the vaginal epithelium. The area method according to Behrens and Karber was employed to calculate the average effective dosages.

[4] = tested on: Prostate (mouse)/hyperplasia induced by methylcholanthrene; test: Chemically-induced precancerous tissue changes in prostate gland organ culture (methylcholanthrene-induced hyperplasia); assay type: cell-based; conditions: read-out: Hyperplastic alveoli, relative to methylcholanthrene control; for activity at 1 µM: 10^-6 M; for activity at 0.1 µM: 10^-7 M; for activity at 0.01 µM: 10^-8 M; for activity at 0.001 µM: 10^-9 M
Description: (D) The activity of compound Ia on chemically-induced precancerous tissue changes was, furthermore, determined in vitro according to the following method. In this experiment prostate glands of mice and trachea of rats cultivated in organ cultures served as the experimental models. In tissues of organ cultures carcinogenic substances bring about after a short period precancerous changes in the form hyperplasias as well as metaplasias and dysplasias. Retinoids, which are administered simultaneously with the carcinogenic compounds or after these, prevent the hyperplasia or metaplasia and dysplasia or even cause these to regress.
The prostate glands consist of alveoli lined with one row of secretory cells and separated by a thin connective tissue. They were removed from mice aged 3-5 months and cut into lobules of approximately 1.5×1.5×2.0 mm. At least six of these lobules were placed on filter paper and transferred on a metal lattice into small culture chambers. Two of these culture chambers were enclosed in a Petri dish lined with a moist filter paper. The culture chambers were filled with nutrient medium up to the height of the lattice so that the explants were moistened well with the nutrient medium, but were not immersed in this. At the nutrient medium there was used customary Medium 199 supplemented by the addition of 15% serum from newly born calves. The carcinogen (3-methylcholanthrene) was added to this prior to the incubation in a concentration of 4-5 μg/ml of nutrient medium. The cultures were then incubated at 37.5° C. During the incubation they were kept in a Macintosh flask which was gassed with a mixture of 5% CO2 +95% oxygen. In a first series of experiments the carcinogen and compound Ia were combined and the tissue was cultivated for 10-12 days. In a second series the explants were pre-treated with the carcinogen for 10-12 days and thereafter placed in a nutrient medium, which only contained compound Ia, for 4-7 days. The concentration of compound Ia lay in the range of 10^-9 to 10^-6 Mol.
The activity of compound Ia is quantified by counting the normal and hyperplastic alveoli in sections of the explant. The results are expressed in percentages of hyperplastic alveoli of the total number of alveoli, for example 120 hyperplastic alveoli out of a total of 200 correspond to 60%. In explants treated with retinoids the percentage is usually small. […] The percentage of hyperplastic alveoli is reduced to 20/60=33%.

[5] = cited from earlier work
[6] = simultaneous treatment, methylcholanthrene (47% hyperplastic alveoli) = 100%
[7] = subsequent treatment, methylcholanthrene (65% hyperplastic alveoli) = 100%

Compound: C/C(=C\c1ccccc1)c1ccc2c(c1)C(C)(C)CCC2(C)C [Compound Ia, 1,2,3,4-tetrahydro-1,1,4,4-tetramethyl-6-[(E)-alpha-methylstyryl]naphthalene]
- % tumor-bearing rats ([1]; 30 mg/kg daily oral): 69.6%
- Average number of tumors per rat ([1]; 30 mg/kg daily oral): 3.0
- Average tumor volume per rat in mm^3 ([1]; 30 mg/kg daily oral): 4904 mm^3
- % tumor-bearing rats, relative to control (100%) ([1]; 30 mg/kg daily oral): 88%
- Average number of tumors per rat, relative to control (100%) ([1]; 30 mg/kg daily oral): 81%
- Average tumor volume per rat, relative to control (100%) ([1]; 30 mg/kg daily oral): 77%
- % tumor-bearing rats ([1]; 90 mg/kg daily oral): 63.8%
- Average number of tumors per rat ([1]; 90 mg/kg daily oral): 1.8
- Average tumor volume per rat in mm^3 ([1]; 90 mg/kg daily oral): 2879 mm^3
- % tumor-bearing rats, relative to control (100%) ([1]; 90 mg/kg daily oral): 80%
- Average number of tumors per rat, relative to control (100%) ([1]; 90 mg/kg daily oral): 48%
- Average tumor volume per rat, relative to control (100%) ([1]; 90 mg/kg daily oral): 45%
- % tumor-bearing rats ([1]; 270 mg/kg daily oral): 39.3%
- Average number of tumors per rat ([1]; 270 mg/kg daily oral): 0.7
- Average tumor volume per rat in mm^3 ([1]; 270 mg/kg daily oral): 543 mm^3
- % tumor-bearing rats, relative to control (100%) ([1]; 270 mg/kg daily oral): 50%
- Average number of tumors per rat, relative to control (100%) ([1]; 270 mg/kg daily oral): 18%
- Average tumor volume per rat, relative to control (100%) ([1]; 270 mg/kg daily oral): 9%
- Tumor area in mm^2, Day 29 ([2]; five times per week for 4 weeks, Day 29 (control 5926)): 1694 mm^2
- Change in tumor area, Day 29 ([2]; five times per week for 4 weeks, Day 29 vs Day 1 (control +394%)): +30%
- Tumor area in mm^2, Day 1 ([2]; five times per week, Day 1): 1300 mm^2
- Tumor area in mm^2, Day 15 after the commencement of treatment ([2]; five times per week, Day 15 (control 2880)): 1416 mm^2
- Change in tumor area, Day 15 ([2]; five times per week, Day 15 vs Day 1 (control +140%)): +9%
- Relative activity (antimetaplastic) ([3]; all-trans vitamin A acid = 100%): 66.6%
- Epithelium protection effect (=anti-metaplastic effect) reduced by the factor ([3]; compared with all-trans vitamin A acid): 0.67
- Antimetaplastic effect (average effective / protective dosage) ([3]; oral, read 2 days after administration, area method of Behrens and Karber): 53.6 µg
- activity at 1 µM [4, 6]: 25%
- activity at 0.1 µM [4, 6]: 46%
- activity at 0.01 µM [4, 6]: 60%
- activity at 0.001 µM [4, 6]: 90%
- activity at 1 µM [4, 7]: 54%
- activity at 0.1 µM [4, 7]: 94%
- activity at 0.01 µM [4, 7]: 98%
- activity at 0.001 µM [4, 7]: 100%
- Hypervitaminosis A phenomena ([5]; e.g. manifestations on skin and mucous membranes): does not exhibit, in particular, any hypervitaminosis A phenomena
- Tolerability / toxic symptoms ([5]; in the therapeutically indicated dosages): well tolerated and that no toxic symptoms appear
- Teratogenicity ([5]; in vivo): non-teratogenic
- Skin irritation ([5]; skin): not irritating to the skin
